Data published in the NIST ThermoML archive (doi:10.1021/je900596d).
± gives the expanded uncertainty stated by the source.

Settings: Vibrating tube method

FC(F)=C(F)C(F)(F)F [hexafluoropropene]
Settings | mass density [kg/m3]
353.12 K, 2589.9 kPa, Fluid (supercritical or subcritical phases) | 239.58 ± 0.55
353.12 K, 2605.1 kPa, Fluid (supercritical or subcritical phases) | 243.48 ± 0.57
353.12 K, 2619.7 kPa, Fluid (supercritical or subcritical phases) | 247.37 ± 0.59
353.12 K, 2635.2 kPa, Fluid (supercritical or subcritical phases) | 251.52 ± 0.61
353.12 K, 2649.7 kPa, Fluid (supercritical or subcritical phases) | 255.58 ± 0.65
353.12 K, 2670.4 kPa, Fluid (supercritical or subcritical phases) | 261.98 ± 0.7
353.12 K, 2690 kPa, Fluid (supercritical or subcritical phases) | 268.46 ± 0.75
353.12 K, 2702.3 kPa, Fluid (supercritical or subcritical phases) | 272.91 ± 0.81
353.12 K, 2710.7 kPa, Fluid (supercritical or subcritical phases) | 275.88 ± 0.82
353.12 K, 2718.3 kPa, Fluid (supercritical or subcritical phases) | 278.85 ± 0.85
353.12 K, 2725 kPa, Fluid (supercritical or subcritical phases) | 281.55 ± 0.89
353.12 K, 2731.2 kPa, Fluid (supercritical or subcritical phases) | 284.3 ± 0.93
353.12 K, 2737.4 kPa, Fluid (supercritical or subcritical phases) | 286.74 ± 0.95
353.12 K, 2744.8 kPa, Fluid (supercritical or subcritical phases) | 290.14 ± 1
353.12 K, 2751.1 kPa, Fluid (supercritical or subcritical phases) | 293.08 ± 1.1
353.12 K, 2757.6 kPa, Fluid (supercritical or subcritical phases) | 296.25 ± 1.1
353.12 K, 2764.5 kPa, Fluid (supercritical or subcritical phases) | 299.88 ± 1.1
353.12 K, 2771.7 kPa, Fluid (supercritical or subcritical phases) | 303.81 ± 1.2
353.13 K, 2798.4 kPa, Liquid | 887.06 ± 1.3
353.13 K, 2805.3 kPa, Liquid | 888.96 ± 1.3
353.13 K, 2812.6 kPa, Liquid | 890.6 ± 1.3
353.13 K, 2818.9 kPa, Liquid | 891.84 ± 1.3
353.13 K, 2825.7 kPa, Liquid | 893.67 ± 1.2
353.13 K, 2832.6 kPa, Liquid | 894.71 ± 1.2
353.13 K, 2839.4 kPa, Liquid | 896.74 ± 1.2
353.13 K, 2846 kPa, Liquid | 898.09 ± 1.2
353.13 K, 2852.6 kPa, Liquid | 899.46 ± 1.2
353.13 K, 2859.8 kPa, Liquid | 900.81 ± 1.2
353.13 K, 2866.7 kPa, Liquid | 902.11 ± 1.2
353.13 K, 2873.8 kPa, Liquid | 903.63 ± 1.2
353.13 K, 2881 kPa, Liquid | 904.67 ± 1.2
353.13 K, 2888.2 kPa, Liquid | 906.06 ± 1.2
353.13 K, 2908.5 kPa, Liquid | 909.29 ± 1.3
353.13 K, 2928.4 kPa, Liquid | 912.84 ± 1.3
353.13 K, 2948.2 kPa, Liquid | 915.77 ± 1.2
353.13 K, 2969.5 kPa, Liquid | 918.7 ± 1.2
353.13 K, 2989.9 kPa, Liquid | 921.51 ± 1.2
353.13 K, 3009.6 kPa, Liquid | 924.14 ± 1.2
353.13 K, 3030.5 kPa, Liquid | 926.96 ± 1.2
353.13 K, 3051.7 kPa, Liquid | 929.82 ± 1.2
353.13 K, 3072.6 kPa, Liquid | 932.36 ± 1.1
353.13 K, 3094.1 kPa, Liquid | 935.03 ± 1.1
353.13 K, 3116.1 kPa, Liquid | 937.73 ± 1.1
353.13 K, 3136.7 kPa, Liquid | 940.03 ± 1.1
353.13 K, 3159.1 kPa, Liquid | 942.35 ± 1.1
353.13 K, 3182.1 kPa, Liquid | 944.69 ± 1.2
353.13 K, 3205.5 kPa, Liquid | 946.93 ± 1.1
353.13 K, 3225.2 kPa, Liquid | 948.79 ± 1.1
353.13 K, 3246.7 kPa, Liquid | 950.79 ± 1.1
353.13 K, 3265.8 kPa, Liquid | 952.67 ± 1.1
353.13 K, 3286.3 kPa, Liquid | 954.54 ± 1.1
353.13 K, 3309.6 kPa, Liquid | 956.7 ± 1.1
353.13 K, 3330.5 kPa, Liquid | 958.57 ± 1.1
353.13 K, 3353 kPa, Liquid | 960.43 ± 1.1
353.13 K, 3369.2 kPa, Liquid | 961.77 ± 1.1
353.13 K, 3392.7 kPa, Liquid | 963.71 ± 1.1
353.13 K, 3399 kPa, Liquid | 964.17 ± 1.1
353.13 K, 3429.5 kPa, Liquid | 966.86 ± 1.1
353.13 K, 3457.9 kPa, Liquid | 969.07 ± 1.1
353.13 K, 3487.3 kPa, Liquid | 971.26 ± 1.1
353.13 K, 3521.2 kPa, Liquid | 973.81 ± 1.1
353.13 K, 3546.8 kPa, Liquid | 975.65 ± 1.1
353.13 K, 3574.3 kPa, Liquid | 977.54 ± 1.1
353.13 K, 3599.5 kPa, Liquid | 979.42 ± 1.1
353.13 K, 3626.9 kPa, Liquid | 981.32 ± 1.1
353.13 K, 3653.9 kPa, Liquid | 982.94 ± 1.1
353.13 K, 3680.4 kPa, Liquid | 984.8 ± 1.1
353.13 K, 3736 kPa, Liquid | 988.5 ± 1.1
353.13 K, 3763.9 kPa, Liquid | 990.13 ± 1.1
353.13 K, 3788.8 kPa, Liquid | 991.7 ± 1.1
353.13 K, 3815.8 kPa, Liquid | 993.28 ± 1.1
353.13 K, 3840.7 kPa, Liquid | 994.81 ± 1.1
353.13 K, 3865.5 kPa, Liquid | 996.26 ± 1.1
353.13 K, 3891.9 kPa, Liquid | 997.74 ± 1.1
353.13 K, 3918.8 kPa, Liquid | 999.3 ± 1.1
353.13 K, 3943.7 kPa, Liquid | 1000.71 ± 1.1
353.13 K, 3971.8 kPa, Liquid | 1002.02 ± 1.1
353.13 K, 3985.4 kPa, Liquid | 1002.96 ± 1.1
353.13 K, 4027.5 kPa, Liquid | 1005.16 ± 1.1
353.13 K, 4066.7 kPa, Liquid | 1007.14 ± 1.1
353.13 K, 4105.8 kPa, Liquid | 1009.21 ± 1.1
353.13 K, 4146.8 kPa, Liquid | 1011.34 ± 1.1
353.13 K, 4185.8 kPa, Liquid | 1013.28 ± 1.1
353.13 K, 4216 kPa, Liquid | 1014.76 ± 1.1
353.13 K, 4257.8 kPa, Liquid | 1016.64 ± 1.1
353.13 K, 4298.4 kPa, Liquid | 1018.66 ± 1.1
353.13 K, 4335.1 kPa, Liquid | 1020.3 ± 1.1
353.13 K, 4374.3 kPa, Liquid | 1022.01 ± 1.1
353.13 K, 4415.3 kPa, Liquid | 1023.76 ± 1.1
353.13 K, 4454.8 kPa, Liquid | 1025.55 ± 1.1
353.13 K, 4494.4 kPa, Liquid | 1027.22 ± 1.1
353.13 K, 4534 kPa, Liquid | 1028.89 ± 1.1
353.13 K, 4574.1 kPa, Liquid | 1030.62 ± 1.1
353.13 K, 4611.4 kPa, Liquid | 1032.18 ± 1.1
353.13 K, 4650.8 kPa, Liquid | 1033.77 ± 1.1
353.13 K, 4692 kPa, Liquid | 1035.33 ± 1.1
353.13 K, 4731.2 kPa, Liquid | 1036.88 ± 1.1
353.13 K, 4772.4 kPa, Liquid | 1038.52 ± 1.1
353.13 K, 4813.3 kPa, Liquid | 1040.05 ± 1.1
353.13 K, 4854.9 kPa, Liquid | 1041.63 ± 1.1
353.13 K, 4892.5 kPa, Liquid | 1043.01 ± 1.1
353.13 K, 4933.3 kPa, Liquid | 1044.53 ± 1.1
353.13 K, 4970.7 kPa, Liquid | 1045.82 ± 1.1
353.13 K, 5012.1 kPa, Liquid | 1047.29 ± 1.1
353.13 K, 5052.5 kPa, Liquid | 1048.76 ± 1.1
353.13 K, 5091.9 kPa, Liquid | 1050.11 ± 1.1
353.13 K, 5130 kPa, Liquid | 1051.53 ± 1.1
353.13 K, 5169.1 kPa, Liquid | 1052.89 ± 1.1
353.13 K, 5208.1 kPa, Liquid | 1054.11 ± 1.1
353.13 K, 5247 kPa, Liquid | 1055.36 ± 1.1
353.13 K, 5287.6 kPa, Liquid | 1056.62 ± 1.1
353.13 K, 5325.3 kPa, Liquid | 1057.82 ± 1.1
353.13 K, 5365.1 kPa, Liquid | 1059.19 ± 1.1
353.13 K, 5403.1 kPa, Liquid | 1060.48 ± 1.1
353.13 K, 5442.6 kPa, Liquid | 1061.62 ± 1.1
353.13 K, 5480.8 kPa, Liquid | 1062.93 ± 1.1
353.13 K, 5559.8 kPa, Liquid | 1065.32 ± 1.1
353.13 K, 5597.5 kPa, Liquid | 1066.51 ± 1.1
353.13 K, 5634.9 kPa, Liquid | 1067.6 ± 1.1
353.13 K, 5673 kPa, Liquid | 1068.78 ± 1.1
353.13 K, 5711.7 kPa, Liquid | 1069.91 ± 1.1
353.13 K, 5751 kPa, Liquid | 1071.01 ± 1.1
353.13 K, 5788.5 kPa, Liquid | 1072.12 ± 1.1
353.13 K, 5826.7 kPa, Liquid | 1073.17 ± 1.1
353.13 K, 5865.4 kPa, Liquid | 1074.15 ± 1.1
353.13 K, 5902.7 kPa, Liquid | 1075.33 ± 1.1
353.13 K, 5941.8 kPa, Liquid | 1076.43 ± 1.1
353.13 K, 5981.5 kPa, Liquid | 1077.54 ± 1.1
353.13 K, 6019.6 kPa, Liquid | 1078.56 ± 1.1
353.13 K, 6060.4 kPa, Liquid | 1079.62 ± 1.1
353.13 K, 6101 kPa, Liquid | 1080.65 ± 1.1
353.13 K, 6140.3 kPa, Liquid | 1081.81 ± 1.1
353.13 K, 6177.9 kPa, Liquid | 1082.78 ± 1.1
353.13 K, 6216.7 kPa, Liquid | 1083.8 ± 1.1
